# Assays:
# Assay in all cases: relative viability (nuclei count vs DMSO), 5 days (fraction); higher = more cells survive
# [1] = compound: Nc1ncn([C@H]2C[C@H](O)[C@@H](CO)O2)c(=O)n1 [Decitabine] + Cc1cc(Nc2cc(N3CCN(C)CC3)nc(Sc3ccc(NC(=O)C4CC4)cc3)n2)n[nH]1 [Tozasertib] (partner 0.1 µM)
# Procedure, shortened: (§1)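 Each reported value is a median over duplicate plates. It expresses relative viability: treated-well nuclei count divided by vehicle-well nuclei count. Lung cancer cell lines in 1536-well plates were dosed by pin tool a day after seeding, alone with one drug or with a fixed anchor-drug dose plus five library-drug doses (not always all listed) in √10 steps, and nuclei were counted after 5 days.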
# [2] = compound: O=C(C[C@H]1NCCC[C@@H]1O)Cn1cnc2cc(Br)c(Cl)cc2c1=O (racemic) [Halofuginone] + COc1cccc2cc(-c3nc([C@H]4CC[C@H](C(=O)O)CC4)n4ncnc(N)c34)[nH]c12 [OSI-027] (partner 0.5 µM)
# Procedure, shortened: as §1
# [3] = compound: O=C(C[C@H]1NCCC[C@@H]1O)Cn1cnc2cc(Br)c(Cl)cc2c1=O (racemic) [Halofuginone] + CS(=O)(=O)N1CCN(Cc2cc3nc(-c4cccc5[nH]ncc45)nc(N4CCOCC4)c3s2)CC1 [Pictilisib] (partner 1 µM)
# Procedure, shortened: as §1
# [4] = compound: O=C(C[C@H]1NCCC[C@@H]1O)Cn1cnc2cc(Br)c(Cl)cc2c1=O (racemic) [Halofuginone] + O=C(CCCCCCC(=O)Nc1ccccc1)NO [Vorinostat] (partner 1 µM)
# Procedure, shortened: as §1
Cell Line,relative viability ([1]; first compound 0.04 µM),relative viability ([1]; first compound 0.1265 µM),relative viability ([1]; first compound 0.4 µM),relative viability ([1]; first compound 4 µM),relative viability ([2]; first compound 0.001 µM),relative viability ([2]; first compound 0.003162 µM),relative viability ([2]; first compound 0.01 µM),relative viability ([2]; first compound 0.03162 µM),relative viability ([2]; first compound 0.1 µM),relative viability ([3]; first compound 0.001 µM),relative viability ([3]; first compound 0.003162 µM),relative viability ([3]; first compound 0.01 µM),relative viability ([3]; first compound 0.03162 µM),relative viability ([3]; first compound 0.1 µM),relative viability ([4]; first compound 0.001 µM),relative viability ([4]; first compound 0.003162 µM),relative viability ([4]; first compound 0.01 µM),relative viability ([4]; first compound 0.03162 µM),relative viability ([4]; first compound 0.1 µM),relative viability ([1]; first compound 1.265 µM)
201T,0.742,0.776,0.909,0.587,0.755,0.775,0.713,0.474,0.256,0.708,0.647,0.666,0.597,0.516,1.01,0.971,0.964,0.909,0.776,
A549,,,,,,,,,,0.569,0.547,0.53,0.347,0.0767,,,,,,
A-427,0.195,0.136,0.118,0.135,0.472,0.483,0.385,0.445,0.419,0.683,0.749,0.73,0.756,0.66,0.89,0.891,0.828,0.827,0.807,0.123
ABC-1,0.211,0.185,0.174,0.21,0.413,0.454,0.504,0.601,0.417,0.415,0.922,0.836,0.728,0.51,1.11,1.08,1.04,1.24,1.04,0.195
BEN,0.443,0.454,0.421,0.355,0.341,0.287,0.299,0.288,0.247,0.52,0.587,0.547,0.594,0.425,0.55,0.541,0.55,0.587,0.572,0.371
CAL-12T,0.292,0.268,,0.219,0.872,0.771,0.707,0.807,0.414,0.691,0.277,,0.468,0.323,0.876,0.897,0.746,0.651,0.445,0.21
COR-L23,0.134,0.158,0.158,0.128,0.769,0.86,0.72,0.677,0.302,0.954,0.963,0.801,0.6,0.156,0.602,0.295,0.493,0.301,0.106,0.123
COR-L 105,0.378,0.336,0.36,0.237,0.667,0.637,0.603,0.656,0.466,0.437,0.432,0.412,0.338,0.31,1.04,0.872,0.896,0.774,0.719,0.365
Calu-6,,,,,,,,,,0.968,0.873,0.849,0.327,0.11,,,,,,
ChaGo-K-1,0.23,0.238,0.189,0.208,0.537,0.605,0.528,0.537,0.501,0.587,0.397,0.683,0.669,0.776,0.725,0.766,0.755,0.726,0.746,0.176
EBC-1,,,,,,,,,,0.441,0.31,0.263,0.195,0.101,,,,,,
EKVX,0.283,0.266,0.247,0.148,0.656,0.789,0.773,0.499,0.539,0.442,0.442,0.443,0.469,0.354,0.787,0.729,0.729,0.693,0.572,0.166
EMC-BAC-2,0.274,0.266,0.27,0.271,0.4,0.397,0.38,0.4,0.315,0.491,0.55,0.489,0.54,0.46,0.592,0.491,0.447,0.334,0.14,0.251
EPLC-272H,,0.307,0.0586,0.157,0.342,0.278,0.262,0.29,0.257,0.324,0.306,0.338,0.352,0.325,0.479,0.401,0.304,0.411,0.382,0.26
H3255,,0.633,0.524,0.431,0.598,0.55,0.602,0.601,0.553,0.472,0.482,0.437,0.394,0.447,0.852,0.818,0.761,0.819,0.818,0.506
HARA,0.0975,0.0855,0.0556,0.0747,0.68,0.631,0.536,0.566,0.399,0.556,0.461,0.402,0.436,0.235,0.587,0.675,0.512,0.697,0.51,0.078
HCC-15,0.308,0.388,0.345,0.175,0.709,0.667,0.644,0.709,0.509,0.721,0.852,0.7,0.857,0.673,0.848,0.866,0.902,0.876,0.85,0.213
HCC-44,,1.01,0.174,0.382,0.505,0.613,0.444,0.379,0.202,0.545,0.605,0.592,0.67,0.399,1.15,1.14,1.17,1.2,1.05,0.457
HCC-78,0.443,0.488,0.369,0.291,0.347,0.334,0.363,0.396,0.407,0.216,0.193,0.206,0.21,0.221,0.675,0.459,0.391,0.426,0.367,0.38
HCC-366,0.0988,0.104,0.0711,0.0387,1.33,1.02,0.857,0.892,0.567,0.231,0.14,0.216,0.144,0.184,0.446,0.347,0.319,0.233,0.0907,0.0439

Cell Line,relative viability ([1]; first compound 0.04 µM),relative viability ([1]; first compound 0.1265 µM),relative viability ([1]; first compound 0.4 µM),relative viability ([1]; first compound 4 µM),relative viability ([2]; first compound 0.001 µM),relative viability ([2]; first compound 0.003162 µM),relative viability ([2]; first compound 0.01 µM),relative viability ([2]; first compound 0.03162 µM),relative viability ([2]; first compound 0.1 µM),relative viability ([3]; first compound 0.001 µM),relative viability ([3]; first compound 0.003162 µM),relative viability ([3]; first compound 0.01 µM),relative viability ([3]; first compound 0.03162 µM),relative viability ([3]; first compound 0.1 µM),relative viability ([4]; first compound 0.001 µM),relative viability ([4]; first compound 0.003162 µM),relative viability ([4]; first compound 0.01 µM),relative viability ([4]; first compound 0.03162 µM),relative viability ([4]; first compound 0.1 µM),relative viability ([1]; first compound 1.265 µM)
HCC-827,0.253,0.265,0.219,0.224,0.746,0.783,0.76,0.902,0.742,0.874,1.05,0.962,1.08,0.777,0.764,0.777,0.795,0.869,0.87,0.221
HOP-62,0.226,0.229,0.141,0.104,0.782,0.803,0.826,0.727,0.576,0.661,0.781,0.766,0.53,0.239,0.675,0.597,0.603,0.566,0.279,0.108
IA-LM,,,,,,,,,,0.415,0.26,0.288,0.256,0.057,1.02,0.995,0.902,0.92,0.878,
LC-2-ad,0.479,0.419,0.299,0.371,0.903,0.888,0.746,0.889,0.608,0.66,0.551,0.492,0.455,0.269,0.695,0.706,0.69,0.696,0.686,0.334
LCLC-97TM1,0.167,0.17,0.129,0.0997,0.674,0.612,0.597,0.566,0.358,0.289,0.216,0.179,0.201,0.14,0.757,0.602,0.726,0.622,0.419,0.11
LCLC-103H,0.485,0.463,0.308,0.253,0.474,0.447,0.446,0.428,0.451,0.627,0.605,0.601,0.668,0.685,0.865,0.807,0.803,0.723,0.719,0.369
LK-2,0.168,0.166,0.182,0.19,0.24,0.237,0.201,0.221,0.167,0.577,0.792,0.531,0.664,0.532,0.331,0.292,0.292,0.353,0.254,0.155
LOU-NH91,0.444,0.606,0.522,0.512,0.733,0.732,0.748,0.741,0.692,0.574,0.51,0.503,0.52,0.514,0.929,0.955,0.898,0.907,0.779,0.464
LU99A,0.32,0.255,0.291,0.219,0.36,0.32,0.281,0.288,0.254,0.405,0.361,0.294,0.308,0.242,0.482,0.578,0.51,0.479,0.453,0.252
LXF-289,0.151,0.162,0.119,0.0957,0.762,0.885,0.819,0.785,0.542,0.748,0.859,0.795,0.813,0.495,0.709,0.829,0.728,0.763,0.686,0.0869
NCI-H522,0.538,0.624,0.376,0.37,0.734,0.707,0.721,0.689,0.605,,,,,,0.833,0.829,0.926,0.951,0.976,0.446
NCI-H1299,,,,,,,,,,1.01,0.806,0.619,0.232,0.077,,,,,,
NCI-H1563,,,,,0.859,0.735,0.837,0.612,0.527,0.671,0.644,0.685,0.588,0.575,,,,,,
NCI-H1623,0.401,0.422,0.367,0.305,0.536,0.455,0.436,0.517,0.423,,,,,,,,,,,0.373
NCI-H1648,0.519,0.402,0.321,0.184,0.247,0.217,0.242,0.275,0.262,,,,,,0.624,0.488,0.522,0.415,0.61,0.172
NCI-H1703,,,,,,,,,,0.252,0.264,0.247,0.214,0.193,,,,,,
NCI-H1792,,,,,0.71,0.749,0.801,0.737,0.592,0.336,0.228,0.3,0.34,0.243,,,,,,
NCI-H2342,0.495,0.502,0.552,0.362,0.565,0.622,0.574,0.7,0.618,,,,,,0.649,0.743,0.725,0.715,0.737,0.385
SW 900,0.288,0.297,0.222,0.15,0.68,0.628,0.518,0.494,0.293,,,,,,0.729,0.379,,0.535,0.317,0.182
